Four compounds from patent US20110160081A1, “FUNCTIONAL COMPLEMENTATION ASSAY FOR DEFINED GPCR OLIGOMERS” (priority 2008, published 2011) can be followed below.

Test [1] relates to endogenous purinergic receptors. As to the kind of experiment: Aequorin assay, endogenous receptors in AEQ cells. It counts as cell-based. An excerpt: To enable isolation of the signaling of the D2R from endogenous G proteins, and to control each of the components of the signaling complex, Flp-In 1-Rex-293 cells were engineered to stably express aequorin (AEQ cells) (see Example 1). Aequorin produces luminescence in a calcium-dependent manner in the presence of the substrate coelenterazine (23, 24), and it has been used to create a sensitive luminescence readout for GPCR-mediated PLC activation (25). In these cells, endogenous muscarinic or purinergic receptors signaled robustly via endogenous Gq, resulting in strong agonist-induced (ACH and ATP, respectively) luminescence signals (FIG. 7A).

The subject of test [2] is WT D2R coexpressed with D2/D4-Gqi5. The experiment in a line: Aequorin functional complementation assay, WT D2R as protomer A with D2/D4-Gqi5 as protomer B. It counts as cell-based, human. To be noted: L745,870 1 μM; agonist quinpirole; n=9. The text has this:
(§1) The signals were further normalized according to Flag tagged D2R expression level. To normalize for different levels of surface expression levels of the Flag-D2R-Gqi5 mutant constructs, the Emax at each expression level (FIG. 12F) was plotted as a function of different levels of expression of Flag-tagged wt D2R-Gqi5, the expression of which was controlled by varying the time after tetracycline induction (FIG. 12A). The level of Myc-D2R remained essentially unchanged (FIG. 12B). The standard curve was fit to a 1 site rectangular hyperbola using nonlinear regression in GraphPad Prism 4.0 (GraphPad Software Inc., La Jolla, Calif.) (FIG. 12G). The luminescence response of the various Flag-D2R-Gqi5 constructs was normalized using this standard curve to account for the effects of different expression levels, with activation of 1 defined as that observed after 12 hours of tetracycline induction of WT D2R-Gqi5. The Flag detection was approximately 5-fold more sensitive than that of Myc; thus, the excess of Myc-tagged protomer A, which cannot signal on its own, ensures that normalization based on surface expression of the Flag-tagged Gqi5-fused protomer B accurately reflects the productive signaling entities, each of which must contain a protomer A and a protomer B.

Test [3] has as its target T1, SSTR5 coexpressed with D2R-Gqi5 (Homo sapiens, UniProt P14416+P35346).
T1 construct: signal peptide (N); expressed in transfected cells; host or cells: AEQ cells (Flp-in T-rex 293 with aequorin)
It counts as cell-based.

Test [4] deals with T2, SSTR5 coexpressed with D114A-Gqi5 (Homo sapiens, UniProt P35346).
T2 construct: signal peptide (N); expressed in transfected cells; host or cells: AEQ cells (Flp-in T-rex 293 with aequorin)
It is filed as cell-based.

Test [5] deals with T3, D2R coexpressed with free Gqi5 (Homo sapiens, UniProt P14416).
T3 construct: signal peptide (N); expressed in transfected cells; host or cells: Flp-in T-rex 293 cells stably expressing aequorin
It counts as cell-based. To be noted: pertussis toxin 100 ng/ml 16-24 hours.

In test [6] the target is T4, D2R coexpressed with D2-Gqi5 (Homo sapiens, UniProt P14416).
T4 construct: signal peptide (N); expressed in transfected cells; host or cells: Flp-in T-rex 293 cells stably expressing aequorin
As to the kind of experiment: Aequorin functional complementation assay, D2R coexpressed with D2R-Gqi5. It counts as cell-based. To be noted: pertussis toxin 100 ng/ml 16-24 hours.
Text: as §1, with “B. […]” for “B.”

T1 sequence (P35346 whole entry): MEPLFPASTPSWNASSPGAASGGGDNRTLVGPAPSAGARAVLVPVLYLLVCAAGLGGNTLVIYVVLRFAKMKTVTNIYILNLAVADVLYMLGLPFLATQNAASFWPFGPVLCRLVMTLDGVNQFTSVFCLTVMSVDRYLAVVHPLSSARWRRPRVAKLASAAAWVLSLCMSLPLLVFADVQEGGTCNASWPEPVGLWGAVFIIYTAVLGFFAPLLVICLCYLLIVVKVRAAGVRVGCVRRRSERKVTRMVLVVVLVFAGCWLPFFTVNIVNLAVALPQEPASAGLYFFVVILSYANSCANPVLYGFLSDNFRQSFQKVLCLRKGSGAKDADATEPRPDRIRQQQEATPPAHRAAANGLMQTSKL
T1 sequence (P14416 with tags, fused parts or gaps isoform P14416-2): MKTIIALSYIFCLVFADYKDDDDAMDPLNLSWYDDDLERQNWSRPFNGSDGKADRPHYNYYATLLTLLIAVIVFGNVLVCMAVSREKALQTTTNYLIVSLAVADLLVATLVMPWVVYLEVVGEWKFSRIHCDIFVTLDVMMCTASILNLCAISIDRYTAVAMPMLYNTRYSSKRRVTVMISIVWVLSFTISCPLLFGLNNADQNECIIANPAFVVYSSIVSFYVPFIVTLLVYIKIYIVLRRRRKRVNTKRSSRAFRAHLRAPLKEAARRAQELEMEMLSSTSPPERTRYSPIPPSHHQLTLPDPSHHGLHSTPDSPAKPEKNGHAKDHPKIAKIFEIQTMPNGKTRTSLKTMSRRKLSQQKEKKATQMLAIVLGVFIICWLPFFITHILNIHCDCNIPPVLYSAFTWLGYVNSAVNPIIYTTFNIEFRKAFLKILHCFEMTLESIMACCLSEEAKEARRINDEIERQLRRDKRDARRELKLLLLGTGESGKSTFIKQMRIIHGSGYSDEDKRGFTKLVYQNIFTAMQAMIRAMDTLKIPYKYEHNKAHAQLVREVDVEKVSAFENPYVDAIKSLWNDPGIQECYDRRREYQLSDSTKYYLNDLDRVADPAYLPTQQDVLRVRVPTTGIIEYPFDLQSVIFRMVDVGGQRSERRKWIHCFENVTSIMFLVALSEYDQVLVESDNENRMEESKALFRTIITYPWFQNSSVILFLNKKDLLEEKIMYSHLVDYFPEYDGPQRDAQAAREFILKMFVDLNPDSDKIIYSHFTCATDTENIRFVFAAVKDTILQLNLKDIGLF
T2 sequence (P35346 whole entry, stated change not applied): as the sequence (P35346 whole entry) above
T2 sequence (P14416 with tags, fused parts or gaps isoform P14416-2 D114A partner): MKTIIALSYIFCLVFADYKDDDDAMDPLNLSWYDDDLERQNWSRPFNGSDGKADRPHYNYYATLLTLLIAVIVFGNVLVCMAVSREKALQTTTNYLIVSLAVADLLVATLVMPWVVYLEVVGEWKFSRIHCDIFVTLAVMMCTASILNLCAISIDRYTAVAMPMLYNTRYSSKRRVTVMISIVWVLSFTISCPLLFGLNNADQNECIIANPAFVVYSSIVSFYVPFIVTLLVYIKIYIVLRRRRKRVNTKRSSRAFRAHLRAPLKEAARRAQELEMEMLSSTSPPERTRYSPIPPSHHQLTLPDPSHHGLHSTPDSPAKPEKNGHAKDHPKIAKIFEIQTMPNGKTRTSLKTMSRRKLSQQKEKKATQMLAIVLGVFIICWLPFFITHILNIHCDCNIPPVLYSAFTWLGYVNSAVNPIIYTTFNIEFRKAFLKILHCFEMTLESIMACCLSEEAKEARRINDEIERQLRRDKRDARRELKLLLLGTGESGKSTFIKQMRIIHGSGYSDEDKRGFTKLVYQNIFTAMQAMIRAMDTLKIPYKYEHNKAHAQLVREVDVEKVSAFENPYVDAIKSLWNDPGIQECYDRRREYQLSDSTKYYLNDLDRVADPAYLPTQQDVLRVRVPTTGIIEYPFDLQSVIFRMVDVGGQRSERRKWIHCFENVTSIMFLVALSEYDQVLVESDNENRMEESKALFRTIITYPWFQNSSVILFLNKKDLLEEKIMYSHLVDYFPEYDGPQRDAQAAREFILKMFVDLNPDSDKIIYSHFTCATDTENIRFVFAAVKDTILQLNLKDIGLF
T4 sequence (P14416 with tags, fused parts or gaps isoform P14416-2): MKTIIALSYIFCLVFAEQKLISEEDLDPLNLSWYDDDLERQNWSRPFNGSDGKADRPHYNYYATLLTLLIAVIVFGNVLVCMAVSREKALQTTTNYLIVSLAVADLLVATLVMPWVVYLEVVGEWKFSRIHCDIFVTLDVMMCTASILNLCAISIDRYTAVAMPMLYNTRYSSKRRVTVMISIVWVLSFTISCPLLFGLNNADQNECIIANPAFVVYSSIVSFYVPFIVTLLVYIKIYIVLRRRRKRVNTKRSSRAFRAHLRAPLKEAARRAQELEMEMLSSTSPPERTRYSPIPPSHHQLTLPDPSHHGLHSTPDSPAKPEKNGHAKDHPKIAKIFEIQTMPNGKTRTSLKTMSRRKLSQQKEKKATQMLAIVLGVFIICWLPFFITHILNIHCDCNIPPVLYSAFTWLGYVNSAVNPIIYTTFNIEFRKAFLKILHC
T4 sequence (P14416 with tags, fused parts or gaps isoform P14416-2): as the sequence (P14416 with tags, fused parts or gaps isoform P14416-2 D114A partner) above, with A138D counted along it
T3 sequence (P14416 with tags, fused parts or gaps isoform P14416-2): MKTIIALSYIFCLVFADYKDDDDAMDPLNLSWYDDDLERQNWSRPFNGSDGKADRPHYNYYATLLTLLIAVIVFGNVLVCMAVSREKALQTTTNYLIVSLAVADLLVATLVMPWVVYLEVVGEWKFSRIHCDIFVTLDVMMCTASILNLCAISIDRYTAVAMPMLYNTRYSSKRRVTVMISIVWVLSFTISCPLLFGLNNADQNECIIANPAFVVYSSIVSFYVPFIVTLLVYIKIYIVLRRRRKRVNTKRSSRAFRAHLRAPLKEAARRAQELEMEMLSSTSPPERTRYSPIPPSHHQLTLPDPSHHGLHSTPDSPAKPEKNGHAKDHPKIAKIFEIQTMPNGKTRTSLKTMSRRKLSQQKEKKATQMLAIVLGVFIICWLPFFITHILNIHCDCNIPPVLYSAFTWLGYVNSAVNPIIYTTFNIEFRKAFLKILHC

`Nc1ncnc2c1ncn2[C@@H]1O[C@H](COP(=O)(O)OP(=O)(O)OP(=O)(O)O)[C@@H](O)[C@H]1O` [ATP]: the “agonist-induced luminescence signal via endogenous Gq” value in test [1] is given as “strong”.
Take `Cl.Cl.Cl.Clc1ccc(N2CCN(Cc3c[nH]c4ncccc34)CC2)cc1` [L745,870, 3-(4-[4-Chlorophenyl]piperazin-1-yl)-methyl-1H-pyrrolo[2,3-b]pyridine trihydrochloride]: the “maximal activation, % of that observed for D2R coexpressed with WT D2R-Gqi5” value in test [2] is recorded as 156.7±7.3%.
As for `CCN1CCCC1CNC(=O)c1cc(S(N)(=O)=O)ccc1OC` (centres unmarked) [sulpiride], the “enhancement of potency of somatostatin by sulpiride relative to quinpirole” value in test [3] (D2R inverse agonist sulpiride versus agonist quinpirole) is given as “about 6 fold”. The figures for the “effect on SSTR5 activation (luminescence readout)” value in test [3] (coadministration of 1 μM with somatostatin) and in test [4] were “enhanced” and “without effect”, respectively. For the same compound, the “shift in the SST curve” value in test [3] (in presence of compound, data not shown) is recorded as “full shift”.
Turning to pertussis toxin, in test [5], the “effect of PTX on increase in luminescence” value was “unaffected”. The “effect of pertussis toxin treatment on activation” value in test [6] was “lack of effect”.
